Test system: HEK293 cells
Assay: Viability assay of HEK293 cells (CellTiter-Glo luminescent cell viability assay)
Assay type: cell-based, human
Settings: 7 days (168 h) incubation, 3 μM to 0.00015 μM
Method: Viability Assay of HEK293 Cells
A viability assay was performed using the CellTiter-Glo® Luminescent Cell Viability Assay (see Promega Corporation's Technical No. 288, pp. 1-11 [revised February 2004] which is hereby incorporated by reference in its entirety). This assay is a homogeneous method of determining the number of viable cells in culture based on quantitation of the ATP present, an indicator of metabolically active cells. The assay is designed for use with multiwell formats, making it ideal for automated high-throughput screening (HTS), cell proliferation and cytotoxicity assays. The homogeneous assay procedure involves adding a single reagent (containing luciferase, luciferan substrate, and buffer) directly to cells cultured in serum-supplemented medium. Cell washing, removal of medium and multiple pipetting steps are not required. The system detects as few as 15 cells/well in a 384-well format in 10 minutes after adding reagent and mixing.
The homogeneous “add-mix-measure” format results in cell lysis and generation of a luminescent signal proportional to the amount of ATP present. The amount of ATP is directly proportional to the number of cells present in culture. The above-referenced assay generates a “glow-type” luminescent signal, produced by the luciferase reaction, which has a half-life generally greater than five hours, depending on cell type and medium used. The extended half-life eliminates the need to use reagent injectors and provides flexibility for continuous or batch mode processing of multiple plates. […]
HEK293 cells (human embryonic kidney cell line transformed by Adenovirus 5 fragments, ATCC-No. CRL 1573) were cultivated in Dulbecco's Modified Eagle Medium (D-MEM) (1×) liquid (high glucose) (which includes L-Alanyl-L-Glutamine [a stabilized a form of L-Glutamine], 4500 mg/L glucose, and 110 mg/L sodium pyruvate) from Invitrogen Corporation (Invitrogen Catalog Number 31966-021 [now 10569-010] which is hereby incorporated by reference in its entirety), 5% Fetal Calf Serum (FCS, Sigma Cat-No. F4135 [FBS] which is hereby incorporated by reference in its entirety), and 100 Units/ml penicillin/100 μg/ml streptomycin (=Pen/Strep from Invitrogen Cat. No. 15140, which is hereby incorporated by reference in its entirety). […] After 7 days the above viability assay was performed in accordance with the following steps: • Step 1: The cell-plate was equilibrated to room temperature for approximately 30 minutes and than the assay reagent (containing luciferase, luciferan substrate, and buffer) was added. • Step 2: The contents were carefully mixed for 15 minutes to induce cell lysis. • Step 3: After 45 minutes the luminescent signal was measured in Victor 2, (scanning multiwell spectrophotometer, Wallac). […]

Row | Structure (SMILES) | IC50 [nM] | IC50 (Homo sapiens) [nM]
1 | OC(CCCn1ccnn1)c1ccc(OCc2coc(/C=C/c3ccc(OC(F)(F)F)cc3)n2)cc1 (racemic) [Example 2, (rac)-4-[1,2,3]Triazol-1-yl-1-(4-{2-[(E)-2-(4-trifluoro-methoxyphenyl)-vinyl]-oxazol-4-ylmethoxy}-phenyl)-butan-1-ol] | 21.1 | –
2 | O=C(CCCn1ccnn1)c1ccc(OCc2coc(/C=C/c3ccc(OC(F)(F)F)cc3)n2)cc1 [Example 1, 4-[1,2,3]Triazol-1-yl-1-(4-{2-[(E)-2-(4-trifluoromethoxy-phenyl)-vinyl]-oxazol-4-ylmethoxy}-phenyl)-butan-1-one] | – | 17.9
3 | O=C(CCCn1ccnn1)c1ccc(OCc2coc(/C=C/c3ccc(SC(F)(F)F)cc3)n2)cc1 [Example 3, 4-[1,2,3]Triazol-1-yl-1-(4-{2-[(E)-2-(4-trifluoromethylsulfanyl-phenyl)-vinyl]-oxazol-4-ylmethoxy}-phenyl)-butan-1-one] | – | 29.9
4 | O=C(CCCn1ccnn1)c1ccc(OCc2coc(C=Cc3ccc(C(F)(F)F)cc3)n2)cc1 [Reference compound, 4-[1,2,3]Triazol-1-yl-1-(4-{2-[2-(4-trifluoromethyl-phenyl)-vinyl]-oxazol-4-ylmethoxy}-phenyl)-butan-1-one, reference compound] | – | 164

Source: patent US7288557B2, “Triazole derivatives” (Hoffmann-La Roche Inc., priority 2004, dated 2007)
